{
  "source": "paper PMC9428149",
  "about": "“Tackling recalcitrant Pseudomonas aeruginosa infections in critical illness via anti-virulence monotherapy” (Nature Communications, 2022)",
  "key": {"[1]": {"system": "MvfR-regulated small molecules in PA14", "assay": "Production of HAQs, 2-AA, DHQ and AA in PA14 cultures (LC-MS)", "settings": "Pseudomonas aeruginosa"}, "MvfR protein (MvfRC87)": {"molecular_target": "T1, MvfR protein (MvfRC87) (Pseudomonas aeruginosa, UniProt Q9I4X0)", "T1 construct": "The MvfRC87 protein purified as in Xiao et. al., 2006; made in house", "T1 sequence (Q9I4X0 87-332)": "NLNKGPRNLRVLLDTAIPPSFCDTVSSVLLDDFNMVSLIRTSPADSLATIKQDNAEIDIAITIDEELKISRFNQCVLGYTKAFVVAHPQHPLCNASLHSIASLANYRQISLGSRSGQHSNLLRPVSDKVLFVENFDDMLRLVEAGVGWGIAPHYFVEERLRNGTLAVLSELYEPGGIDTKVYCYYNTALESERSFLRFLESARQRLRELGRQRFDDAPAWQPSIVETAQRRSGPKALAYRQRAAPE", "assay_type": "binding", "settings": "SPR", "description": "The selected compounds were tested for their ability to bind to MvfR. Target validation was carried out by using surface plasmon resonance (SPR). The MvfRC87 protein purified as in Xiao et. al., 2006[33] was covalently immobilized on a CM7 Series S sensor chip using an amine coupling reagent kit (GE Healthcare) at the range level of 3000 to 5000 response units (RU). RU was analyzed by Biacore T200 evaluation software 2.0 (GE Healthcare). The relative response units (RUs) 5 seconds before the end of the association were extracted from the double-reference-corrected sensor grams at different concentrations. These responses were plotted against their respective concentrations for MvfR inhibitor alone and in the presence of native MvfR ligand PQS and compared to the calculated responses for the mixture expected for different binding sites."}, "[2]": {"system": "mvfR mutant constitutively expressing the pqsABCDE operon", "assay_type": "cell-based", "settings": "Pseudomonas aeruginosa, control about 100, single replicates (Figure 4a)"}, "[3]": {"system": "PA14 isogenic mutant ΔmvfR AT/P cells", "assay": "AT/P cell formation in ΔmvfR mutant (off-target)", "settings": "Pseudomonas aeruginosa, PA14, 24 h, read-out: AT/P cell formation, ΔmvfR + compound; PA14 about 100; single replicates (Figure 4b)"}, "[4]": {"system": "pyocyanin production in PA14", "assay": "Pyocyanin production assay", "settings": "Pseudomonas aeruginosa"}, "[5]": {"system": "pqsA promoter (PA14 PpqsA-GFPASV)", "assay": "pqsA-GFP reporter expression", "assay_type": "cell-based, Pseudomonas aeruginosa", "settings": "Pseudomonas aeruginosa"}, "PA14 AT/P cells": {"system": "PA14 AT/P cells", "assay": "AT/P cells formation assay in PA14", "assay_type": "cell-based, Pseudomonas aeruginosa", "settings": "Pseudomonas aeruginosa, PA14, 24 h, read-out: inhibition of AT/P cells formation"}, "[6]": {"assay": "Solubility in iPBS pH 7.4 by HPLC", "assay_type": "physicochemical", "settings": "isotonic phosphate buffer (iPBS), aqueous with cosolvent or surfactant or cyclodextrin, kinetic from dmso stock; iPBS pH 7.4, HPLC; read-out: Solubility (M) in PBS", "description": "Solubility of the 10 mM compounds dissolved in DMSO was tested in the isotonic phosphate buffer (iPBS) at pH 7.4 using High-Performance Liquid Chromatography (HPLC). For the preparation of iPBS phosphate-buffered saline tab (Sigma-Aldrich 08057-12Tab-F) is dissolved in 500 mL of deionized water and the final composition of the solution contains 10 mM PBS, 2.7 mM KCl, 140 mM NaCl and 0.05% Tween. A total 10 µL of the compound from a 10 mM stock solution in DMSO was added to the vial, and 190 µL of buffer was added to each vial and mixed with shaking at room temperature for 4 h. Thereafter the samples were filtered, and 160 µL of the sample was mixed with 40 µL of DMSO for the final injection. Ibuprofen (high solubility) and Progesterone (low Solubility) were used as standard compounds. Ammonium Acetate aqueous solution (50 mM, pH 7.4) and the acetonitrile were used as mobile phases A and B, respectively. The measurement of concentration was achieved by comparing of UV absorbance of the sample solution and the known standard solution following an HPLC separation using a generic fast gradient method. The solubility of each compound is expressed by the ratio of compound amount in the sample test solution to the amount of compound in the standard solution."}, "[7]": {"system": "16 MDR P. aeruginosa clinical isolates", "assay": "Pyocyanin production in MDR clinical isolates", "settings": "Pseudomonas aeruginosa, 18 h, Control about 100, replicates"}},
  "note": "Where two headings read alike, the source gives them in different places.",
  "data": [
    {"smiles": "N#Cc1ccc(NC(=O)CC(=O)Nc2ccc(Br)cc2)cc1", "note": "[D42]", "values": [
      {"measurement": "activity at 50 µM", "setting": "[1]; PA14, read-out: % Production 2-AA", "result": 6, "unit": "%"},
      {"measurement": "activity at 50 µM", "setting": "[1]; PA14, read-out: % Production AA", "result": 701, "unit": "%"},
      {"measurement": "activity at 50 µM", "setting": "[1]; PA14, read-out: % Production DHQ", "result": 11, "unit": "%"},
      {"measurement": "activity at 50 µM", "setting": "[1]; PA14, read-out: % Production HHQ", "result": 2, "unit": "%"},
      {"measurement": "activity at 50 µM", "setting": "[1]; PA14, read-out: % Production HQNO", "result": 14, "unit": "%"},
      {"measurement": "activity at 50 µM", "setting": "[1]; PA14, read-out: % Production PQS", "result": 8, "unit": "%"},
      {"measurement": "inhibition at 50 µM", "setting": "[1]; PA14, read-out: HHQ production inhibition", "result": "89 to 99", "unit": "%"},
      {"measurement": "inhibition at 50 µM", "setting": "[1]; PA14, read-out: HQNO production inhibition", "result": "40 to 92", "unit": "%"},
      {"measurement": "inhibition at 50 µM", "setting": "[1]; PA14, read-out: PQS production inhibition", "result": "76 to 97", "unit": "%"},
      {"measurement": "inhibition at 50 µM", "setting": "[1]; PA14, read-out: inhibition of 2-AA production", "result": "82 to 95", "unit": "%"},
      {"measurement": "inhibition at 50 µM", "setting": "[1]; PA14, read-out: inhibition of DHQ production", "result": "82 to 96", "unit": "%"},
      {"measurement": "Response Unit (RU)", "setting": "MvfR protein (MvfRC87); Concentration 1.00E-05 M", "result": 30, "unit": "RU"},
      {"measurement": "Response Unit (RU)", "setting": "MvfR protein (MvfRC87); Concentration 1.00E-06 M", "result": 23, "unit": "RU"},
      {"measurement": "Response Unit (RU)", "setting": "MvfR protein (MvfRC87); Concentration 1.00E-07 M", "result": 10.1, "unit": "RU"},
      {"measurement": "Response Unit (RU)", "setting": "MvfR protein (MvfRC87); Concentration 1.00E-08 M", "result": 2.1, "unit": "RU"},
      {"measurement": "Response Unit (RU)", "setting": "MvfR protein (MvfRC87); Concentration 3.16E-06 M", "result": 27.4, "unit": "RU"},
      {"measurement": "Response Unit (RU)", "setting": "MvfR protein (MvfRC87); Concentration 3.16E-07 M", "result": 16.8, "unit": "RU"},
      {"measurement": "Response Unit (RU)", "setting": "MvfR protein (MvfRC87); Concentration 3.16E-08 M", "result": 5, "unit": "RU"},
      {"measurement": "activity at 50 µM", "setting": "[2]; read-out: HQNO, ΔmvfR-pqsABCD strain", "result": 90.7, "unit": "%"},
      {"measurement": "activity at 50 µM", "setting": "[2]; read-out: PQS, ΔmvfR-pqsABCD strain", "result": 98.9, "unit": "%"},
      {"measurement": "activity at 10 µM", "setting": "[3]", "result": 25.1, "unit": "%"},
      {"measurement": "activity at 50 µM", "setting": "[4]; PA14, 18 h, read-out: % Production Pyocyanin", "result": 6, "unit": "%"},
      {"measurement": "IC50", "setting": "[4]; PA14, read-out: IC50 pyocyanin production", "result": 1340, "unit": "nM"},
      {"measurement": "activity at 50 µM", "setting": "[5]; PA14, read-out: % Production pqsA-GFP", "result": 8, "unit": "%"},
      {"measurement": "IC50", "setting": "[5]; PA14, read-out: IC50 pqsA-GFP expression, PA14, 13 concentrations", "result": 920, "unit": "nM"},
      {"measurement": "inhibition at 10 µM", "setting": "PA14 AT/P cells", "result": "≥ 76", "unit": "%"},
      {"measurement": "solubility at 4 h", "setting": "[6]", "result": "1.5e-05", "unit": "M"},
      {"measurement": "activity at 10 µM", "setting": "[7]; read-out: Pyocyanin production relative to Control, clinical isolate LGR-4325", "result": 15.2, "unit": "%"},
      {"measurement": "activity at 10 µM", "setting": "[7]; read-out: Pyocyanin production relative to Control, clinical isolate LGR-4326", "result": 9.87, "unit": "%"},
      {"measurement": "activity at 10 µM", "setting": "[7]; read-out: Pyocyanin production relative to Control, clinical isolate LGR-4327", "result": 23.8, "unit": "%"},
      {"measurement": "activity at 10 µM", "setting": "[7]; read-out: Pyocyanin production relative to Control, clinical isolate LGR-4328", "result": 15.7, "unit": "%"},
      {"measurement": "activity at 10 µM", "setting": "[7]; read-out: Pyocyanin production relative to Control, clinical isolate LGR-4330", "result": 16.4, "unit": "%"},
      {"measurement": "activity at 10 µM", "setting": "[7]; read-out: Pyocyanin production relative to Control, clinical isolate LGR-4331 (first section, r117)", "result": 17.2, "unit": "%"},
      {"measurement": "activity at 10 µM", "setting": "[7]; read-out: Pyocyanin production relative to Control, clinical isolate LGR-4331 (second section, r140)", "result": 10, "unit": "%"},
      {"measurement": "activity at 10 µM", "setting": "[7]; read-out: Pyocyanin production relative to Control, clinical isolate LGR-4333", "result": 11.6, "unit": "%"},
      {"measurement": "activity at 10 µM", "setting": "[7]; read-out: Pyocyanin production relative to Control, clinical isolate LGR-4343", "result": 15.3, "unit": "%"},
      {"measurement": "activity at 10 µM", "setting": "[7]; read-out: Pyocyanin production relative to Control, clinical isolate LGR-4344", "result": 19.4, "unit": "%"},
      {"measurement": "activity at 10 µM", "setting": "[7]; read-out: Pyocyanin production relative to Control, clinical isolate LGR-4348", "result": 11.9, "unit": "%"},
      {"measurement": "activity at 10 µM", "setting": "[7]; read-out: Pyocyanin production relative to Control, clinical isolate LGR-4356", "result": 16.3, "unit": "%"},
      {"measurement": "activity at 10 µM", "setting": "[7]; read-out: Pyocyanin production relative to Control, clinical isolate LGR-4362", "result": 26.2, "unit": "%"},
      {"measurement": "activity at 10 µM", "setting": "[7]; read-out: Pyocyanin production relative to Control, clinical isolate LGR-4363", "result": 20.8, "unit": "%"},
      {"measurement": "activity at 10 µM", "setting": "[7]; read-out: Pyocyanin production relative to Control, clinical isolate LGR-4364 (first section, r326)", "result": 16.1, "unit": "%"},
      {"measurement": "activity at 10 µM", "setting": "[7]; read-out: Pyocyanin production relative to Control, clinical isolate LGR-4364 (second section, r349)", "result": 16.4, "unit": "%"}
    ]}
  ]
}
